#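 All cell lines were grown in 96-well plates and treated with compound for 48 hours. The concentration for 50% growth inhibition is given as GI50. TGI: total growth inhibition.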
# Columns and labels:
# Assay in all cases: inhibition of tumour cell growth, NCI panel, 48 h
# HCC-2998 colon = system: HCC-2998 colon
# T-47D breast = system: T-47D breast
# SK-MEL-28 melanoma = system: SK-MEL-28 melanoma
# RPMI-8226 leukemia = system: RPMI-8226 leukemia
# MOLT-4 leukemia = system: MOLT-4 leukemia
# UACC-257 melanoma = system: UACC-257 melanoma
# OVCAR-3 ovarian = system: OVCAR-3 ovarian
# HL-60(TB) leukemia = system: HL-60(TB) leukemia
# HOP-62 NSCLC = system: HOP-62 NSCLC
# SR leukemia = system: SR leukemia
# PC-3 prostate = system: PC-3 prostate
# SK-MEL-2 melanoma = system: SK-MEL-2 melanoma
# 786-0 renal = system: 786-0 renal
# HCT-15 colon = system: HCT-15 colon
# OVCAR-8 ovarian = system: OVCAR-8 ovarian
# NCI-H23 lung = system: NCI-H23 lung
# BT-549 breast = system: BT-549 breast
# OVCAR-4 ovarian = system: OVCAR-4 ovarian
# SF-268 CNS = system: SF-268 CNS
# NCI-H522 lung = system: NCI-H522 lung
# ACHN renal = system: ACHN renal
# M14 melanoma = system: M14 melanoma
# SK-OV-3 ovarian = system: SK-OV-3 ovarian
# SF-295 CNS = system: SF-295 CNS
# K-562 leukemia = system: K-562 leukemia
# SNB-75 CNS = system: SNB-75 CNS
# CCRF-CEM leukemia = system: CCRF-CEM leukemia
# HS 578T breast = system: HS 578T breast
# A549 NSCLC = system: A549 NSCLC
# MALME-3M melanoma = system: MALME-3M melanoma
# RXF 393 renal = system: RXF 393 renal
# OVCAR-5 ovarian = system: OVCAR-5 ovarian
# HT29 colon = system: HT29 colon
# UO-31 renal = system: UO-31 renal
# HCT-116 colon = system: HCT-116 colon
# KM12 colon = system: KM12 colon
# NCI-H460 lung = system: NCI-H460 lung
# SN12C renal = system: SN12C renal
# NCI/ADR-RES ovarian = system: NCI/ADR-RES ovarian
# SW-620 colon = system: SW-620 colon
# SNB-19 CNS = system: SNB-19 CNS
# U251 CNS = system: U251 CNS
# DU-145 prostate = system: DU-145 prostate
# HOP-92 NSCLC = system: HOP-92 NSCLC
# TK-10 renal = system: TK-10 renal
# UACC-62 melanoma = system: UACC-62 melanoma
# SF-539 CNS = system: SF-539 CNS
# IGROV1 ovarian = system: IGROV1 ovarian
# LOX IMVI melanoma = system: LOX IMVI melanoma
# A498 renal = system: A498 renal
# COLO 205 colon = system: COLO 205 colon
# CAKI-1 renal = system: CAKI-1 renal
# MCF7 breast = system: MCF7 breast
# NCI-H226 lung = system: NCI-H226 lung
# MDA-MB-231 breast = system: MDA-MB-231 breast
# SK-MEL-5 melanoma = system: SK-MEL-5 melanoma
smiles,measurement,setting,value
Nc1ncc(-c2ccc3ncnc(N4CCc5cc(F)c(Cl)cc54)c3c2)cc1C(F)(F)F,GI50,HCC-2998 colon,2130 nM
same,TGI,HCC-2998 colon,> 100000 nM
same,GI50,T-47D breast,1070 nM
same,TGI,T-47D breast,> 100000 nM
same,GI50,SK-MEL-28 melanoma,2040 nM
same,TGI,SK-MEL-28 melanoma,> 100000 nM
same,GI50,RPMI-8226 leukemia,2330 nM
same,TGI,RPMI-8226 leukemia,> 100000 nM
same,GI50,MOLT-4 leukemia,2130 nM
same,TGI,MOLT-4 leukemia,> 100000 nM
same,GI50,UACC-257 melanoma,2080 nM
same,TGI,UACC-257 melanoma,> 100000 nM
same,GI50,OVCAR-3 ovarian,1390 nM
same,TGI,OVCAR-3 ovarian,> 100000 nM
same,GI50,HL-60(TB) leukemia,981 nM
same,TGI,HL-60(TB) leukemia,> 100000 nM
same,GI50,HOP-62 NSCLC,3180 nM
same,TGI,HOP-62 NSCLC,> 100000 nM
same,GI50,SR leukemia,1670 nM
same,TGI,SR leukemia,> 100000 nM
same,GI50,PC-3 prostate,1440 nM
same,TGI,PC-3 prostate,> 100000 nM
same,GI50,SK-MEL-2 melanoma,2840 nM
same,TGI,SK-MEL-2 melanoma,> 100000 nM
same,GI50,786-0 renal,1040 nM
same,TGI,786-0 renal,4790 nM
same,GI50,HCT-15 colon,1570 nM
same,TGI,HCT-15 colon,> 100000 nM
same,GI50,OVCAR-8 ovarian,2340 nM
same,TGI,OVCAR-8 ovarian,> 100000 nM
same,GI50,NCI-H23 lung,2930 nM
same,TGI,NCI-H23 lung,> 100000 nM
same,GI50,BT-549 breast,1070 nM
same,TGI,BT-549 breast,8330 nM
same,GI50,OVCAR-4 ovarian,1740 nM
same,TGI,OVCAR-4 ovarian,27900 nM
same,GI50,SF-268 CNS,1240 nM
same,TGI,SF-268 CNS,> 100000 nM
same,GI50,NCI-H522 lung,2010 nM
same,TGI,NCI-H522 lung,> 100000 nM
same,GI50,ACHN renal,784 nM
same,TGI,ACHN renal,> 100000 nM
same,GI50,M14 melanoma,2740 nM
same,TGI,M14 melanoma,> 100000 nM
same,GI50,SK-OV-3 ovarian,2150 nM
same,TGI,SK-OV-3 ovarian,> 100000 nM
same,GI50,SF-295 CNS,2030 nM
same,TGI,SF-295 CNS,> 100000 nM
same,GI50,K-562 leukemia,1610 nM
same,TGI,K-562 leukemia,> 100000 nM
same,GI50,SNB-75 CNS,308 nM
same,TGI,SNB-75 CNS,3590 nM
same,GI50,CCRF-CEM leukemia,2680 nM
same,TGI,CCRF-CEM leukemia,> 100000 nM
same,GI50,HS 578T breast,298 nM
same,TGI,HS 578T breast,2540 nM
same,GI50,A549 NSCLC,1560 nM
same,TGI,A549 NSCLC,> 100000 nM
same,GI50,MALME-3M melanoma,1440 nM
same,TGI,MALME-3M melanoma,> 100000 nM
same,GI50,RXF 393 renal,274 nM
same,TGI,RXF 393 renal,1530 nM
same,GI50,OVCAR-5 ovarian,1230 nM
same,TGI,OVCAR-5 ovarian,> 100000 nM
same,GI50,HT29 colon,1970 nM
same,TGI,HT29 colon,> 100000 nM
same,GI50,UO-31 renal,330 nM
same,TGI,UO-31 renal,> 100000 nM
same,GI50,HCT-116 colon,2080 nM
same,TGI,HCT-116 colon,> 100000 nM
same,GI50,KM12 colon,2470 nM
same,TGI,KM12 colon,> 100000 nM
same,GI50,NCI-H460 lung,1390 nM
same,TGI,NCI-H460 lung,> 100000 nM
same,GI50,SN12C renal,754 nM
same,TGI,SN12C renal,> 100000 nM
same,GI50,NCI/ADR-RES ovarian,2050 nM
same,TGI,NCI/ADR-RES ovarian,> 100000 nM
same,GI50,SW-620 colon,1950 nM
same,TGI,SW-620 colon,> 100000 nM
same,GI50,SNB-19 CNS,2620 nM
same,TGI,SNB-19 CNS,> 100000 nM
same,GI50,U251 CNS,3500 nM
same,TGI,U251 CNS,> 100000 nM
same,GI50,DU-145 prostate,1800 nM
same,TGI,DU-145 prostate,> 100000 nM
COc1ccc(/C=C\c2cc(OC)c(OC)c(OC)c2)cc1N/C=C\C(=O)c1c[nH]c2ccccc12,GI50,HCC-2998 colon,< 10 nM
same,TGI,HCC-2998 colon,> 100000 nM
same,GI50,SK-MEL-28 melanoma,1590 nM
same,TGI,SK-MEL-28 melanoma,> 100000 nM
same,GI50,HOP-92 NSCLC,13.7 nM
same,TGI,HOP-92 NSCLC,3640 nM
same,GI50,RPMI-8226 leukemia,< 10 nM
same,TGI,RPMI-8226 leukemia,19600 nM
same,GI50,MOLT-4 leukemia,< 10 nM
same,TGI,MOLT-4 leukemia,> 100000 nM
same,GI50,TK-10 renal,40200 nM
same,TGI,TK-10 renal,> 100000 nM
same,GI50,UACC-257 melanoma,> 100000 nM
same,TGI,UACC-257 melanoma,> 100000 nM
same,GI50,OVCAR-3 ovarian,< 10 nM
same,TGI,OVCAR-3 ovarian,< 10 nM
same,GI50,UACC-62 melanoma,4380 nM
same,TGI,UACC-62 melanoma,64200 nM
same,GI50,SF-539 CNS,< 10 nM
same,TGI,SF-539 CNS,< 10 nM
same,GI50,HOP-62 NSCLC,< 10 nM
same,TGI,HOP-62 NSCLC,> 100000 nM
same,GI50,SR leukemia,< 10 nM
same,TGI,SR leukemia,> 100000 nM
same,GI50,IGROV1 ovarian,< 10 nM
same,TGI,IGROV1 ovarian,> 100000 nM
same,GI50,PC-3 prostate,< 10 nM
same,TGI,PC-3 prostate,> 100000 nM
same,GI50,SK-MEL-2 melanoma,< 10 nM
same,TGI,SK-MEL-2 melanoma,20300 nM
same,GI50,786-0 renal,< 10 nM
same,TGI,786-0 renal,> 100000 nM
same,GI50,HCT-15 colon,< 10 nM
same,TGI,HCT-15 colon,> 100000 nM
same,GI50,LOX IMVI melanoma,< 10 nM
same,TGI,LOX IMVI melanoma,> 100000 nM
same,GI50,A498 renal,< 10 nM
same,TGI,A498 renal,15.3 nM
same,GI50,OVCAR-8 ovarian,< 10 nM
same,TGI,OVCAR-8 ovarian,> 100000 nM
same,GI50,NCI-H23 lung,< 10 nM
same,TGI,NCI-H23 lung,> 100000 nM
same,GI50,OVCAR-4 ovarian,< 10 nM
same,TGI,OVCAR-4 ovarian,> 100000 nM
same,GI50,SF-268 CNS,< 10 nM
same,TGI,SF-268 CNS,> 100000 nM
same,GI50,COLO 205 colon,< 10 nM
same,TGI,COLO 205 colon,< 10 nM
same,GI50,ACHN renal,< 10 nM
same,TGI,ACHN renal,> 100000 nM
same,GI50,M14 melanoma,< 10 nM
same,TGI,M14 melanoma,47800 nM
same,GI50,SK-OV-3 ovarian,< 10 nM
same,TGI,SK-OV-3 ovarian,> 100000 nM
same,GI50,SF-295 CNS,< 10 nM
same,TGI,SF-295 CNS,> 100000 nM
same,GI50,K-562 leukemia,< 10 nM
same,TGI,K-562 leukemia,> 100000 nM
same,GI50,SNB-75 CNS,< 10 nM
same,TGI,SNB-75 CNS,> 100000 nM
same,GI50,CAKI-1 renal,< 10 nM
same,TGI,CAKI-1 renal,> 100000 nM
same,GI50,CCRF-CEM leukemia,< 10 nM
same,TGI,CCRF-CEM leukemia,> 100000 nM
same,GI50,HS 578T breast,< 10 nM
same,TGI,HS 578T breast,> 100000 nM
same,GI50,MCF7 breast,< 10 nM
same,TGI,MCF7 breast,> 100000 nM
same,GI50,NCI-H226 lung,16 nM
same,TGI,NCI-H226 lung,> 100000 nM
same,GI50,A549 NSCLC,< 10 nM
same,TGI,A549 NSCLC,> 100000 nM
same,GI50,MALME-3M melanoma,5000 nM
same,TGI,MALME-3M melanoma,57200 nM
same,GI50,OVCAR-5 ovarian,< 10 nM
same,TGI,OVCAR-5 ovarian,> 100000 nM
same,GI50,HT29 colon,< 10 nM
same,TGI,HT29 colon,> 100000 nM
same,GI50,UO-31 renal,< 10 nM
same,TGI,UO-31 renal,> 100000 nM
same,GI50,HCT-116 colon,< 10 nM
same,TGI,HCT-116 colon,10400 nM
same,GI50,KM12 colon,< 10 nM
same,TGI,KM12 colon,25.4 nM
same,GI50,NCI-H460 lung,< 10 nM
same,TGI,NCI-H460 lung,20300 nM
same,GI50,SN12C renal,22.4 nM
same,TGI,SN12C renal,> 100000 nM
same,GI50,MDA-MB-231 breast,< 10 nM
same,TGI,MDA-MB-231 breast,94400 nM
same,GI50,NCI/ADR-RES ovarian,< 10 nM
same,TGI,NCI/ADR-RES ovarian,43300 nM
same,GI50,SW-620 colon,< 10 nM
same,TGI,SW-620 colon,> 100000 nM
same,GI50,SNB-19 CNS,< 10 nM
same,TGI,SNB-19 CNS,> 100000 nM
same,GI50,U251 CNS,< 10 nM
same,TGI,U251 CNS,47800 nM
same,GI50,SK-MEL-5 melanoma,< 10 nM
same,TGI,SK-MEL-5 melanoma,20.1 nM
same,GI50,DU-145 prostate,< 10 nM
same,TGI,DU-145 prostate,14.2 nM
